In the NIST ThermoML archive (doi:10.1021/acs.jced.7b00002):

Experiment: xn = mol fraction of the nth substance listed
Conditions: 97.6 kPa, Liquid; for viscosity: Capillary tube (Ostwald / Ubbelohde) method; for mass density: Vibrating tube method

CCCCCCCC[n+]1ccn(C)c1.[Cl-] [1-methyl-3-octylimidazolium chloride] + c1ccncc1
Conditions | mass density [kg/m3] | viscosity [mPa·s]
303.15 K, x1 = 0.128 | 988.9 | 3.46
303.15 K, x1 = 0.255 | 998.25 | 12.71
303.15 K, x1 = 0.339 | 1000.33 | 29.41
303.15 K, x1 = 0.445 | 1002.78 | 84.05
303.15 K, x1 = 0.578 | 1004.43 | 290.77
303.15 K, x1 = 0.755 | 1005.83 | 863.91
303.15 K, x1 = 0.865 | 1005.51 | 2828.1
303.15 K, x1 = 1 | 1006.2 | 7339.7
308.15 K, x1 = 0.128 | 984.71 | 3.11
308.15 K, x1 = 0.255 | 994.55 | 10.87
308.15 K, x1 = 0.339 | 996.84 | 24.13
308.15 K, x1 = 0.445 | 999.45 | 65.58
308.15 K, x1 = 0.578 | 1001.29 | 215.57
308.15 K, x1 = 0.755 | 1002.79 | 599.38
308.15 K, x1 = 0.865 | 1002.58 | 1823.5
308.15 K, x1 = 1 | 1003.33 | 4272.9
313.15 K, x1 = 0.128 | 980.51 | 2.81
313.15 K, x1 = 0.255 | 990.84 | 9.39
313.15 K, x1 = 0.339 | 993.34 | 20.12
313.15 K, x1 = 0.445 | 996.14 | 51.96
313.15 K, x1 = 0.578 | 998.15 | 161.31
313.15 K, x1 = 0.755 | 999.79 | 426
313.15 K, x1 = 0.865 | 999.66 | 1210.7
313.15 K, x1 = 1 | 1000.48 | 2766.9
318.15 K, x1 = 0.128 | 976.31 | 2.56
318.15 K, x1 = 0.255 | 987.14 | 8.17
318.15 K, x1 = 0.339 | 989.85 | 16.97
318.15 K, x1 = 0.445 | 992.85 | 42.02
318.15 K, x1 = 0.578 | 995.01 | 123.18
318.15 K, x1 = 0.755 | 996.82 | 309.61
318.15 K, x1 = 0.865 | 996.75 | 829.67
318.15 K, x1 = 1 | 997.64 | 1788.6
323.15 K, x1 = 0.128 | 972.1 | 2.34
323.15 K, x1 = 0.255 | 983.45 | 7.17
323.15 K, x1 = 0.339 | 986.38 | 14.49
323.15 K, x1 = 0.445 | 989.57 | 34.4
323.15 K, x1 = 0.578 | 991.88 | 96.06
323.15 K, x1 = 0.755 | 993.86 | 230.68
323.15 K, x1 = 0.865 | 993.8 | 583.82
323.15 K, x1 = 1 | 994.82 | 1198.7
328.15 K, x1 = 0.128 | 967.86 | 2.15
328.15 K, x1 = 0.255 | 979.75 | 6.34
328.15 K, x1 = 0.339 | 982.9 | 12.56
328.15 K, x1 = 0.445 | 986.28 | 28.53
328.15 K, x1 = 0.578 | 988.75 | 75.98
328.15 K, x1 = 0.755 | 990.9 | 174.4
328.15 K, x1 = 0.865 | 990.92 | 419.77
328.15 K, x1 = 1 | 992 | 828.3
333.15 K, x1 = 0.128 | 963.58 | 1.98
333.15 K, x1 = 0.255 | 976.06 | 5.65
333.15 K, x1 = 0.339 | 979.42 | 10.81
333.15 K, x1 = 0.445 | 983 | 23.98
333.15 K, x1 = 0.578 | 985.64 | 61.06
333.15 K, x1 = 0.755 | 987.95 | 134.84
333.15 K, x1 = 0.865 | 988.06 | 309.69
333.15 K, x1 = 1 | 989.17 | 588.69
338.15 K, x1 = 0.128 | 959.29 | 1.83
338.15 K, x1 = 0.255 | 972.37 | 5.06
338.15 K, x1 = 0.339 | 975.93 | 9.51
338.15 K, x1 = 0.445 | 979.67 | 20.37
338.15 K, x1 = 0.578 | 982.53 | 49.81
338.15 K, x1 = 0.755 | 984.99 | –
338.15 K, x1 = 0.865 | 985.22 | 233.02
338.15 K, x1 = 1 | 986.38 | 426.28
343.15 K, x1 = 0.128 | 955.03 | 1.7
343.15 K, x1 = 0.255 | 968.68 | 4.56
343.15 K, x1 = 0.339 | 972.4 | 8.37
343.15 K, x1 = 0.445 | 976.42 | 17.42
343.15 K, x1 = 0.578 | 979.44 | 41.06
343.15 K, x1 = 0.755 | 982.04 | 84.08
343.15 K, x1 = 0.865 | 982.37 | 177.92
343.15 K, x1 = 1 | 983.63 | 316.66
348.15 K, x1 = 0.128 | 950.66 | 1.58
348.15 K, x1 = 0.255 | 965 | 4.13
348.15 K, x1 = 0.339 | 968.9 | 7.4
348.15 K, x1 = 0.445 | 973.05 | 15.01
348.15 K, x1 = 0.578 | 976.36 | 34.18
348.15 K, x1 = 0.755 | 979.11 | 68.04
348.15 K, x1 = 0.865 | 979.56 | 138.26
348.15 K, x1 = 1 | 980.88 | 237.14
353.15 K, x1 = 0.128 | 946.27 | 1.48
353.15 K, x1 = 0.255 | 961.31 | 3.76
353.15 K, x1 = 0.339 | 965.27 | 6.63
353.15 K, x1 = 0.445 | 969.48 | 13.03
353.15 K, x1 = 0.578 | 973.29 | 28.74
353.15 K, x1 = 0.755 | 976.18 | 55.2
353.15 K, x1 = 0.865 | 976.69 | 108.95
353.15 K, x1 = 1 | 978.13 | 181.41
